In patent US20150141411A1, “SUBSTITUTED 3,4-DIHYDRO-2H-PYRIDO[1,2-A]PYRAZINE-1,6-DIONE DERIVATIVES USEFUL FOR THE TREATMENT OF (INTER ALIA) ALZHEIMER'S DISEASE” (Janssen Pharmaceuticals, Inc., priority 2012, published 2015):
Structures can show the parent of a compound that is named as a salt.

Assays:
[1] = target: T1, γ-secretase (Homo sapiens, UniProt P49768); experiment: Screening for γ-secretase-modulating activity: Aβtotal in supernatant of SKNBE2 cells carrying hAPP 695 wild type (Alphalisa); type: cell-based; conditions: SKNBE2 human neuroblastoma cells carrying hAPP 695 wild type, overnight incubation, Aβtotal in cell supernatant
T1 construct: endogenous in cells; host or cells: SKNBE2 human neuroblastoma cells (carrying hAPP 695 wild type as substrate)
Protocol: (§1) Screening was carried out using SKNBE2 human neuroblastoma cells carrying the hAPP 695—wild type, grown in Dulbecco's Modified Eagle's Medium/Nutrient mixture F-12 (DMEM/NUT-mix F-12) (HAM) provided by Invitrogen (cat no. 10371-029) containing 5% Serum/Fe supplemented with 1% non-essential amino acids, 1-glutamine 2 mM, Hepes 15 mM, penicillin 50 U/ml (units/ml) en streptomycin 50 μg/ml. Cells were grown to near confluency.
(§2) The screening was performed using a modification of the assay as described in Citron et al (1997) Nature Medicine 3: 67. Briefly, cells were plated in a 384-well plate at 10^4 cells/well in Ultraculture (Lonza, BE12-725F) supplemented with 1% glutamine (Invitrogen, 25030-024), 1% non-essential amino acid (NEAA), penicillin 50 U/ml en streptomycin 50 μg/ml in the presence of test compound at different test concentrations. The cell/compound mixture was incubated overnight at 37° C., 5% CO2. The next day the media were assayed by two sandwich immuno-assays, for Aβ42 and Aβ total.
(§3) Aβtotal and Aβ42 concentrations were quantified in the cell supernatant using the Aphalisa technology (Perkin Elmer). Alphalisa is a sandwich assay using biotinylated antibody attached to streptavidin coated donorbeads and antibody conjugated to acceptor beads. In the presence of antigen, the beads come into close proximity. The excitation of the donor beads provokes the release of singlet oxygen molecules that trigger a cascade of energy transfer in the acceptor beads, resulting in light emission. To quantify the amount of Aβ42 in the cell supernatant, monoclonal antibody specific to the C-terminus of Aβ42 (JRF/cAβ42/26) was coupled to the receptor beads and biotinylated antibody specific to the N-terminus of Aβ (JRF/AβN/25) was used to react with the donor beads. To quantify the amount of Aβtotal in the cell supernatant, monoclonal antibody specific to the N-terminus of Aβ (JRF/AβN/25) was coupled to the receptor beads and biotinylated antibody specific to the mid region of Aβ (biotinylated 4G8) was used to react with the donor beads.
(§4) To obtain the values reported in Table 3, the data are calculated as percentage of the maximum amount of amyloid Beta 42 measured in the absence of the test compound. The sigmoidal dose response curves were analyzed using non-linear regression analysis with percentage of the control plotted against the log concentration of the compound. A 4-parameter equation was used to determine the IC50.

[2] = target: T1, γ-secretase; experiment: Screening for γ-secretase-modulating activity: Aβ42 in supernatant of SKNBE2 cells carrying hAPP 695 wild type (Alphalisa); type: cell-based; conditions: SKNBE2 human neuroblastoma cells carrying hAPP 695 wild type, overnight incubation, Aβ42 in cell supernatant
Protocol: as §1, §2, §3, §4

| melting point | IC50 [1] | IC50 [2] | SMILES |
| --- | --- | --- | --- |
| 184.6 °C |  |  | Cc1cn(-c2ccc3n(c2=O)C[C@@H](C)N(Cc2cccc(Cl)c2)C3=O)cn1 (as salt: HCl) [compound 24] |
| 208.3 °C |  |  | Cc1cn(-c2ccc3n(c2=O)C[C@@H](C)N(Cc2cc(C(F)(F)F)ccc2C)C3=O)cn1 (as salt: HCl) [compound 72] |
| 235.1 °C |  |  | Cc1cn(-c2ccc3n(c2=O)C[C@@H](C)N(Cc2cc(N4CCC(C)CC4)ccc2Cl)C3=O)cn1 (as salt: HCl) [compound 80] |
| 160.6 °C |  |  | Cc1cn(-c2ccc3n(c2=O)C[C@@H](C)N(Cc2cc(N4CCC(C(F)(F)F)CC4)ccc2Cl)C3=O)cn1 (as salt: HCl) [compound 81] |
|  | > 10000 nM | 2090 nM | O=C1c2ccc(-n3ccnc3)c(=O)n2CCN1Cc1cccc(-c2ccccc2)c1 [compound 109] |
|  | > 10000 nM | 1910 nM | Cc1cn(-c2ccc3n(c2=O)C[C@@H](C)N(Cc2ccc(C)c(-n4cccn4)c2)C3=O)cn1 [compound 114] |
|  | > 10000 nM | > 10000 nM | Cc1cncn1-c1ccc2n(c1=O)CCCN(Cc1ccc(Cl)c(Cl)c1)C2=O [compound 122] |
|  | > 10000 nM | 190 nM | Cc1cn(-c2ccc3n(c2=O)CCC(C)N(Cc2cc(C(F)(F)F)cc(C(F)(F)F)c2)C3=O)cn1 (stereo not shown) [compound 123] |
|  | > 10000 nM | 50 nM | Cc1cn(-c2ccc3n(c2=O)CC(C)N(Cc2c[nH]c4cc(Br)ccc24)C3=O)cn1 (stereo not shown) [compound 125] |
|  | > 10000 nM | 30 nM | Cc1cn(-c2ccc3n(c2=O)C[C@@H](C)N(Cc2cn(C)c4ccc(Cl)cc24)C3=O)cn1 [compound 137] |
|  | > 10000 nM | 40 nM | Cc1cn(-c2ccc3n(c2=O)C[C@@H](C)N(Cc2c[nH]c4ccc(Cl)cc24)C3=O)cn1 [compound 138] |
|  | > 10000 nM | 950 nM | Cc1cn(-c2ccc3n(c2=O)C[C@@H](C)N(Cc2cc(F)cc(OC(F)(F)F)c2)C3=O)cn1 [compound 139] |
|  | > 10000 nM | 70 nM | Cc1cn(-c2ccc3n(c2=O)C[C@@H](C)N(Cc2cc(Br)cc(OC(F)(F)F)c2)C3=O)cn1 [compound 152] |
|  | > 10000 nM | 30 nM | Cc1cn(-c2ccc3n(c2=O)C[C@@H](C)N(CCc2cc(OC(C)C)cc(C(F)(F)F)c2)C3=O)cn1 [compound 156] |
|  | > 10000 nM | 280 nM | Cc1cn(-c2cc(Cl)c3n(c2=O)C[C@@H](C)N(Cc2cc(C(F)(F)F)cc(C(F)(F)F)c2)C3=O)cn1 [compound 159] |
|  | > 10000 nM | 790 nM | Cc1cn(-c2c(C)cc3n(c2=O)C[C@@H](C)N(Cc2cc(C(F)(F)F)cc(C(F)(F)F)c2)C3=O)cn1 [compound 161] |
|  | > 10000 nM | 100 nM | Cc1cn(-c2ccc3n(c2=O)C[C@@H](C)N(Cc2ccc(C)c(OCC4CC4)c2)C3=O)cn1 [compound 162] |
|  | > 10000 nM | 170 nM | Cc1cn(-c2ccc3n(c2=O)C[C@@H](C)N(Cc2cc(OC(C)C)c(Cl)cc2F)C3=O)cn1 [compound 163] |
|  | > 10000 nM | 20 nM | Cc1cn(-c2ccc3n(c2=O)C[C@@H](C)N(Cc2csc4ccc(Cl)cc24)C3=O)cn1 [compound 165] |
|  | > 10000 nM | 1200 nM | Cc1cn(-c2ccc3n(c2=O)CC(C(C)O)N(Cc2cc(C(F)(F)F)cc(C(F)(F)F)c2)C3=O)cn1 (stereo not shown) [compound 167] |
|  | > 10000 nM | 40 nM | Cc1cn(-c2ccc3n(c2=O)C[C@@H](C)N(Cc2ccc(C(F)(F)F)c(N4CCCCC4)c2)C3=O)cn1 [compound 171] |
|  | > 10000 nM | 1260 nM | C[C@@H]1Cn2c(ccc(-n3ccnc3)c2=O)C(=O)N1Cc1cc(C(F)(F)F)cc(C(F)(F)F)c1 [compound 173] |
|  | 5000 nM | 10 nM | Cc1cn(-c2ccc3n(c2=O)C[C@@H](C)N(Cc2cn(C)c4cc(F)c(C5CC5)cc24)C3=O)cn1 [compound 174] |
|  | > 10000 nM | 1550 nM | Cc1cn(-c2ccc3n(c2=O)C[C@@H](C)N(CCc2ccccc2)C3=O)cn1 [compound 176] |
|  | > 10000 nM | 40 nM | Cc1cn(-c2ccc3n(c2=O)CC(C)N(Cc2cn(C)c4cc(Br)ccc24)C3=O)cn1 (stereo not shown) [compound 177] |

| melting point | IC50 [1] | IC50 [2] | SMILES |
| --- | --- | --- | --- |
|  | > 10000 nM | 70 nM | Cc1cn(-c2ccc3n(c2=O)CC(C)N(Cc2c[nH]c4cc(Cl)ccc24)C3=O)cn1 (stereo not shown) [compound 179] |
|  | 6610 nM | 10 nM | Cc1cn(-c2ccc3n(c2=O)C[C@@H](C)N(Cc2c(C)[nH]c4ccc(C(F)(F)F)cc24)C3=O)cn1 [compound 180] |
|  | 4570 nM | 10 nM | Cc1cn(-c2ccc3n(c2=O)CC(C)N(Cc2c(C)n(C)c4ccc(C(F)(F)F)cc24)C3=O)cn1 (stereo not shown) [compound 181] |
|  | 2510 nM | 10 nM | CCn1c(C)c(CN2C(=O)c3ccc(-n4cnc(C)c4)c(=O)n3C[C@H]2C)c2cc(C(F)(F)F)ccc21 [compound 182] |
|  | > 10000 nM | 60 nM | Cc1cn(-c2ccc3n(c2=O)C[C@@H](C)N(Cc2c[nH]c4c(I)cccc24)C3=O)cn1 [compound 197] |
|  | 9780 nM | 20 nM | Cc1cn(-c2ccc3n(c2=O)CC(C)N(Cc2cn(-c4ccccc4)c4cc(Br)ccc24)C3=O)cn1 (stereo not shown) [compound 199] |
|  | > 10000 nM | 120 nM | Cc1cn(-c2ccc3n(c2=O)CC(C)N(C2CCc4ccc(C(F)(F)F)cc42)C3=O)cn1 (stereo not shown) [compound 204] |
|  | > 10000 nM | 240 nM | Cc1cn(-c2ccc3n(c2=O)CC(C)N(C2CCc4ccc(C(F)(F)F)cc42)C3=O)cn1 (stereo not shown) [compound 205] |
|  | > 10000 nM | 60 nM | COc1ccc2c(c1)c(CN1C(=O)c3ccc(-n4cnc(C)c4)c(=O)n3CC1C)cn2C(C)C (stereo not shown) [compound 222] |
|  | > 10000 nM | 20 nM | CCn1cc(CN2C(=O)c3ccc(-n4cnc(C)c4)c(=O)n3CC2C)c2ccc(C(F)(F)F)cc21 (stereo not shown) [compound 225] |
|  | 2190 nM | 10 nM | CCn1cc(CN2C(=O)c3ccc(-n4cnc(C)c4)c(=O)n3C[C@H]2C)c2cc(C(F)(F)F)ccc21 [compound 227] |
|  | > 10000 nM | 260 nM | Cc1cn(-c2ccc3n(c2=O)C[C@@H](C)N(CCc2cccc(Cl)c2Cl)C3=O)cn1 [compound 231] |
|  | 4000 nM | 9 nM | Cc1cn(-c2ccc3n(c2=O)C[C@@H](C)N(Cc2cn(C)c4cc(F)c(C(F)(F)F)cc24)C3=O)cn1 [compound 238] |
|  | 4000 nM | 6 nM | Cc1cn(-c2ccc3n(c2=O)C[C@@H](C)N(Cc2cn(C)c4c(F)cc(C(F)(F)F)cc24)C3=O)cn1 [compound 241] |
|  | > 10000 nM | 260 nM | Cc1cn(-c2ccc3n(c2=O)C[C@@H](C)N(Cc2cn(C)c4cc(F)ccc24)C3=O)cn1 [compound 242] |
|  | 7000 nM | 20 nM | Cc1cn(-c2ccc3n(c2=O)C[C@@H](C)N(Cc2cn(C)c4ccc(C5CC5)cc24)C3=O)cn1 [compound 246] |
|  | 6000 nM | 10 nM | CCn1cc(CN2C(=O)c3ccc(-n4cnc(C)c4)c(=O)n3C[C@H]2C)c2cc(C3CC3)ccc21 [compound 247] |
|  | > 10000 nM | 50 nM | CCn1cc(CN2C(=O)c3ccc(-n4cnc(C)c4)c(=O)n3C[C@H]2C)c2cc(C)ccc21 [compound 250] |
|  | 5000 nM | 10 nM | Cc1cn(-c2ccc3n(c2=O)C[C@@H](C)N(Cc2c[nH]c4ccc(OC(F)(F)F)cc24)C3=O)cn1 [compound 252] |
|  | 5000 nM | 9 nM | Cc1cn(-c2ccc3n(c2=O)C[C@@H](C)N(Cc2cn(C)c4ccc(OC(F)(F)F)cc24)C3=O)cn1 [compound 253] |
|  | > 10000 nM | 40 nM | Cc1cn(-c2ccc3n(c2=O)C[C@@H](C)N(Cc2c[nH]c4c(C(F)(F)F)cc(F)cc24)C3=O)cn1 [compound 257] |
|  | 9000 nM | 20 nM | Cc1cn(-c2ccc3n(c2=O)C[C@@H](C)N(Cc2cn(C)c4cc(C(F)(F)F)c(F)cc24)C3=O)cn1 [compound 258] |
|  | > 10000 nM | 60 nM | Cc1cn(-c2ccc3n(c2=O)C[C@@H](C)N(Cc2cn(C)c4c(C(F)(F)F)cc(F)cc24)C3=O)cn1 [compound 261] |
|  | > 10000 nM | 20 nM | Cc1ccc2c(c1)c(CN1C(=O)c3ccc(-n4cnc(C)c4)c(=O)n3C[C@H]1C)cn2CC(F)(F)F [compound 262] |
